Like-named read-outs stand apart in the source and are kept apart here.
What was measured:
[1] = Evaluation of stability in PBS buffer (pH=7.4), HPLC; type: physicochemical; details: for half-life at 1 mM: PBS buffer pH=7.4, 37° C., read-out: half-life time (T1/2) in PBS buffer (converted)
Experimental: The stabilities of several cyclic carbonate analogues in PBS buffer (pH=7.4) were tested first to determine the standard level of the drug decomposition by media (Table 1). PBS (phosphate buffered saline) buffer is a standard solution used in plasma stability tests. […] After the compounds were incubated in PBS buffer at 37° C., the degradation of the compounds with incubation time was monitored. As the number of fluorines at the C6 position was increased, the half-life time (T1/2) of the molecule was decreased dramatically (4 vs 25 vs 35). T1/2 of the C6-methyl analogue (4) was more than 48 hours and T1/2 of C6-monofluoromethyl analogues (25, 29, and 30) were about 25 hours while T1/2 of C6-trifluoromethyl analogues (35, 39, and 40) were about 5 hours. If the substitution of C-6 position (CH3, CH2F, or CF3) was same, T1/2 of diverse benzyl esters (benzyl, 4-fluorobenzyl, or 2,4-difluorobenzyl) were not dramatically changed. […] These half-lives of benzyl esters and cyclic carbonates in PBS buffer were sufficient to use these promoieties for the penetration of the cell membrane.
The stock solution of the test compound (10 mM in acetonitrile, 50 μL) was added to PBS buffer (pH=7.4, 450 μL), and the mixture was incubated at 37° C. Aliquots of the samples were analyzed directly by HPLC (See below). These tests were conducted two times in each compound.
(§1) Analysis was performed on a Phenomenex® Luna C18 column (250×4.6 mm) eluted with a gradient conditions of acetonitrile and H2O. Detection was by UV absorbance at 257 nm or total count of single ion in Agilent 6210 LC-TOF mass spectra.

[2] = Evaluation of stability in human plasma, HPLC or LC-TOF; type: in vitro ADME
Experimental: The stabilities of diverse cyclic carbonate prodrugs (4, 9, 10, 11, 17, 18, 19, 25, 29, 30, 39, 40, and 41), which have a chromosphere for UV detection, in human plasma were tested using HPLC. After the mixture of test compounds and human plasma were incubated at 37° C., the degradation of the compounds was monitored by HPLC (Table 2). […] The peaks of the corresponding diols (3, 24, or 34), which were the compounds that result when only the carbonate moiety of the analogues was hydrolyzed, were not observed. The half-lives of the benzyl or phenyl ester moieties may be shorter than carbonate, under tested conditions for such compounds to be used effectively as prodrugs.
Human plasma (100%, 480 μL) was incubated at 37° C. for 5 min. The stock solution of the test compound (100 mM in acetonitrile, 20 μL) was added to the human plasma, and the mixture was incubated at 37° C. Aliquots (80 μL) of the plasma samples were removed and mixed with an equal volume of acetonitrile. The mixture was stirred vigorously and centrifuged (5500 rpm, 5 min). The supernatant was filtered and the filtrate was analyzed by HPLC or LC-TOF (See below). These tests were conducted two times in each compound.
as §1

[3] = human, human plasma (100%), 37° C., read-out: half-life (T1/2) in human plasma
[4] = human, human plasma (100%), 37° C., read-out: T1/2 (half-lives of diverse carbonate in human plasma)
[5] = human, human plasma (100%), 37° C., read-out: T1/2 (stabilities of the benzyl amide analogues with acetal, ketal, t-butyl carbonate promoieties in human plasma)
[6] = read-out: half-life of the ester moieties on the carboxylic acids

Compound: COC(=O)CC1(CF)CCOC(=O)O1 (stereo not drawn)
- melting point: 42 to 42.5 °C

Compound: CC1(CC(=O)OCc2ccccc2)CCOC(=O)O1 (stereo not drawn) [compound 4]
- half-life at 1 mM [1]: > 48 h
- half-life at 4 mM [2, 3]: 4 min

Compound: CC1(CC(=O)Oc2ccccc2)CCOC(=O)O1 (stereo not drawn) [compound 9]
- half-life at 4 mM [2, 3]: < 3 min
- melting point: 62 to 62.5 °C

Compound: CC1(CC(=O)Oc2ccc(F)cc2)CCOC(=O)O1 (stereo not drawn) [compound 10]
- half-life at 4 mM [2, 3]: < 3 min
- melting point: 68 to 69 °C

Compound: CC1(CC(=O)Oc2ccc3c(c2)CCC3)CCOC(=O)O1 (stereo not drawn) [compound 11]
- half-life at 4 mM [2, 4]: < 3 min
- half-life at 4 mM [2, 3]: < 3 min
- melting point: 88 to 89 °C

Compound: CC1(CC(=O)Nc2ccccc2)CCOC(=O)O1 (stereo not drawn) [compound 17]
- half-life at 4 mM [2, 3]: < 3 min

Compound: CC1(CC(=O)NCc2ccccc2)CCOC(=O)O1 (stereo not drawn) [compound 18]
- half-life at 4 mM [2, 3]: 8 min

Compound: CC1(CC(=O)NCc2ccc(F)cc2)CCOC(=O)O1 (stereo not drawn) [compound 19]
- half-life at 4 mM [2, 3]: 8 min

Compound: O=C(CC1(CF)CCOC(=O)O1)OCc1ccccc1 (stereo not drawn) [compound 25]
- half-life at 1 mM [1]: ~25 h
- T1/2 (half-lives of diverse carbonate in human plasma) ([2]; 37° C.): 2 min
- half-life at 4 mM [2, 3]: < 3 min

Compound: O=C(CC1(CF)CCOC(=O)O1)OCc1ccc(F)cc1 (stereo not drawn) [compound 29]
- half-life at 1 mM [1]: ~25 h
- T1/2 (half-lives of diverse carbonate in human plasma) ([2]; 37° C.): 2 min
- half-life at 4 mM [2, 3]: < 3 min

Compound: O=C(CC1(CF)CCOC(=O)O1)OCc1ccc(F)cc1F (stereo not drawn) [compound 30]
- half-life at 1 mM [1]: ~25 h
- T1/2 (half-lives of diverse carbonate in human plasma) ([2]; 37° C.): 1 min
- half-life at 4 mM [2, 3]: < 3 min

Compound: O=C(CC1(C(F)(F)F)CCOC(=O)O1)OCc1ccccc1 (stereo not drawn) [compound 35]
- half-life at 1 mM [1]: ~5 h
- peak of 34 (carbonate moiety decomposition product) in HPLC ([1]; degradation of 35 in PBS buffer): not observed
- T1/2 (half-lives of diverse carbonate in human plasma) ([2]; 37° C.): <1 min
- half-life at 4 mM [2, 3]: < 3 min
- melting point: 87.5 to 88 °C

Compound: O=C(CC1(C(F)(F)F)CCOC(=O)O1)OCc1ccc(F)cc1 (stereo not drawn) [compound 39]
- half-life at 1 mM [1]: ~5 h
- T1/2 (half-lives of diverse carbonate in human plasma) ([2]; 37° C.): <1 min
- half-life at 4 mM [2, 3]: < 3 min
- melting point: 84 to 85 °C

Compound: O=C(CC1(C(F)(F)F)CCOC(=O)O1)OCc1ccc(F)cc1F (stereo not drawn) [compound 40]
- half-life at 1 mM [1]: ~5 h
- T1/2 (half-lives of diverse carbonate in human plasma) ([2]; 37° C.): <1 min
- half-life at 4 mM [2, 3]: < 3 min

Compound: O=C(CC1(C(F)(F)F)CCOC(=O)O1)OCCc1ccccc1 (stereo not drawn) [compound 41]
- half-life at 4 mM [2, 4]: 4 min
- half-life at 4 mM [2, 3]: < 3 min

Compound: CC1(CC(=O)NCc2ccccc2)CCOCO1 (stereo not drawn) [compound 45]
- T1/2 (stabilities of the benzyl amide analogues with acetal, ketal, t-butyl carbonate promoieties in human plasma) ([2]; 37° C.): >48 h

Compound: O=C(CC1(C(F)(F)F)CCOCO1)NCc1ccccc1 (stereo not drawn) [compound 46]
- T1/2 (stabilities of the benzyl amide analogues with acetal, ketal, t-butyl carbonate promoieties in human plasma) ([2]; 37° C.): >48 h

Compound: CC1(CC(=O)NCc2ccccc2)CCOC(C)(C)O1 (stereo not drawn) [compound 47]
- T1/2 (stabilities of the benzyl amide analogues with acetal, ketal, t-butyl carbonate promoieties in human plasma) ([2]; 37° C.): >48 h

Compound: CC1(C)OCCC(CC(=O)NCc2ccccc2)(C(F)(F)F)O1 (stereo not drawn) [compound 48]
- half-life at 4 mM [2, 5]: > 2880 min

Compound: CC1(CC(=O)NCc2ccccc2)CCOC(c2ccccc2)O1 (stereo not drawn) [compound 49]
- T1/2 (stabilities of the benzyl amide analogues with acetal, ketal, t-butyl carbonate promoieties in human plasma) ([2]; 37° C.): >48 h

Compound: O=C(CC1(C(F)(F)F)CCOC(c2ccccc2)O1)NCc1ccccc1 (stereo not drawn) [compound 50]
- T1/2 (stabilities of the benzyl amide analogues with acetal, ketal, t-butyl carbonate promoieties in human plasma) ([2]; 37° C.): >48 h

Compound: COc1ccc(C2OCCC(CC(=O)NCc3ccccc3)(C(F)(F)F)O2)cc1 (stereo not drawn) [compound 51]
- T1/2 (stabilities of the benzyl amide analogues with acetal, ketal, t-butyl carbonate promoieties in human plasma) ([2]; 37° C.): >48 h

Compound: COc1ccc(C2OCCC(CC(=O)NCc3ccccc3)(C(F)(F)F)O2)cc1 (stereo not drawn) [compound 52]
- half-life at 4 mM [2, 5]: > 2880 min

Compound: COc1ccc(C2OCCC(CC(=O)NCc3ccccc3)(C(F)(F)F)O2)c(OC)c1 (stereo not drawn) [compound 53]
- T1/2 (stabilities of the benzyl amide analogues with acetal, ketal, t-butyl carbonate promoieties in human plasma) ([2]; 37° C.): >48 h

Compound: CC(O)(CCOC(=O)OC(C)(C)C)CC(=O)NCc1ccccc1 (stereo not drawn) [compound 54]
- T1/2 (stabilities of the benzyl amide analogues with acetal, ketal, t-butyl carbonate promoieties in human plasma) ([2]; 37° C.): >48 h

Compound: CC(C)(C)OC(=O)OCCC(O)(CC(=O)NCc1ccccc1)C(F)(F)F (stereo not drawn) [compound 55]
- T1/2 (stabilities of the benzyl amide analogues with acetal, ketal, t-butyl carbonate promoieties in human plasma) ([2]; 37° C.): >48 h

Compound: CC(O)(CCO)CC(=O)NCc1c(F)c(F)c(F)c(F)c1F (stereo not drawn) [compound 56]
- T1/2 (stabilities of amide and ester analogues in human plasma) ([2]; 37° C.): > 120 min

Compound: COC(=O)CC(O)(CF)CCOC(C)=O (stereo not drawn) [compound 63]
- T1/2 (stabilities of amide and ester analogues in human plasma) ([2]; 37° C.): 10 min
- half-life at 4 mM [2, 6]: 10 to 22 min

Compound: CCOC(=O)CC(O)(CF)CCOC(C)=O (stereo not drawn) [compound 64]
- T1/2 (stabilities of amide and ester analogues in human plasma) ([2]; 37° C.): 11 min
- half-life at 4 mM [2, 6]: 10 to 22 min

Compound: CC(=O)OCCC(O)(CF)CC(=O)NCc1ccccc1 (stereo not drawn) [compound 65]
- half-life at 4 mM ([2]; human, human plasma (100%), 37° C., read-out: T1/2 (stabilities of amide and ester analogues in human plasma)): 20 min
- half-life at 4 mM ([2]; human, human plasma (100%), read-out: half-life of the acetyl groups on the alcohol): ~20 min

Source: patent publication US9150534B2, “Prodrugs of fluorinated mevalonates to inhibit the mevalonate pathway of Streptococcus pneumoniae” (Northwestern University, priority 2012, dated 2015)
